First: CN(C)C=C(C(=O)C(C)(C)C)n1ccnc1
Second: CCC1SC(N(C)C(=O)NC)=NN1C(=O)C(C)(C)C (stereo not given)
The melting point of the first is lower: 45 to 50 °C for the first, 144 to 146 °C for the second.

First: c1ccc(C(CC2=NCCN2)c2ccncc2)cc1 (stereo not given)
Second: OC(c1ccccc1)(c1ccc(F)cc1)C1CCNCC1 (stereo not given)
The melting point of the first is lower: 105 to 107 °C for the first, 144 to 146 °C for the second.

Compared with `Cn1cc(C=O)c(-c2ccoc2)n1`, `Cn1cc(-c2ccccc2)nc1CO` is higher in melting point: 77 to 78 °C for the first, 191 to 192 °C for the second.

First: N#Cc1[nH]n(-c2ccccc2)c(=O)c1N=Nc1cc(S(=O)(=O)Cl)ccc1Cl
Second: O=C(O)COc1c(-c2ccccc2)c(=O)[nH]c2cc(Cl)ccc12
The melting point of the first is lower: 115 to 120 °C for the first, 269 to 272 °C for the second.

Compared with `CCOC(=O)c1cc(-c2cccc(C(F)(F)F)c2)c(OCCO)c(-c2cccc(C(F)(F)F)c2)c1`, `Cc1cc(Oc2ncc(C(F)(F)F)cc2Cl)nn1C(=O)Nc1cccc(C(F)(F)F)c1` is lower in melting point: 154 to 158 °C for the first, 123 to 124 °C for the second.

First: Cc1cc(C)c2nsnc2c1[N+](=O)[O-]
Second: CCOC(=O)c1c(C)nc2c(ncn2C)c1OCCC(C)C
The melting point of the first is higher: 105 to 106 °C for the first, 64 to 66 °C for the second.

Compared with `Nc1ccccc1-c1cc[nH]n1`, `COC(=O)[C@@H](Cc1ccccc1)NC(=O)Nc1n[nH]c(=S)s1` is lower in melting point: 122 to 123 °C for the first, 110 °C for the second.

Compared with `CCCC1(C)C(=O)N(COC(=O)c2c(Cl)cccc2Cl)S(=O)(=O)N1C` (stereo not given), `CCc1cccc2c3c([nH]c12)C(CC)(CCOC(C)=O)OCC3` (stereo not given) is higher in melting point: 93 to 95 °C for the first, 126 to 127 °C for the second.

First: CNC1([C@@H]2CCN(c3c(F)cc4c(=O)c(C(=O)O)cn([C@@H]5C[C@@H]5F)c4c3C)C2)CC1
Second: CC(C#N)=C1CCN(c2ccc(N3C[C@@H](CNNCC(=O)O)OC3=O)cc2F)CC1
The melting point of the first is higher: 211 to 212 °C for the first, 141 to 142 °C for the second.

First: Oc1cc2c3cc(O)c(O)cc3n(Cc3cccnc3)c2cc1O
Second: COc1cc2ccc3c4cc(OCc5ccccc5)c(OC)cc4nnc3c2cc1OC
The melting point of the first is higher: 290 to 294 °C for the first, 244 to 246 °C for the second.

First: CCN(CC)c1ccc(/C=C/C(=O)CC(=O)/C=C/c2ccc(O)c(OC)c2)c(O)c1
Second: COc1cccc2cc(C(=O)c3ccc(Cl)c(S(N)(=O)=O)c3)oc12
The melting point of the first is lower: 89 to 92 °C for the first, 167 to 171 °C for the second.

Compared with `C=COC(=O)n1c(S(=O)Cc2ccc(C)cn2)nc2cscc21` (stereo not given), `COCc1ccc2ccc(C=O)nc2c1Cl` is lower in melting point: 162 °C for the first, 118 to 121 °C for the second.

Compared with `O=Cc1ccc2c(c1)COC2=O`, `NCCCCc1cccc(C2=NNC(=O)CC2)c1` is lower in melting point: 160 °C for the first, 128 to 130 °C for the second.

First: C[Si](C)(O[Si](C)(C)c1cccnc1F)c1cccnc1F
Second: O=C1N(Cc2ncccc2C(F)(F)F)c2ccccc2C12COc1cc3[nH]ncc3cc12 (stereo not given)
The melting point of the first is lower: 41 to 42 °C for the first, 152 to 154 °C for the second.

Compared with `Nc1ccc(C2=NN=C(c3ccccn3)N(C(=O)c3ccccc3)N2)nc1`, `Nc1c(C2=CCCCC2)c(-c2ccccc2)nn1-c1ccccc1` is lower in melting point: 223 to 225 °C for the first, 115 to 117 °C for the second.

Compared with `CC12CCC(=O)C=C1CCC1C2C2CC3(C(O)O2)C(C(=O)COC(=O)CC(CC(=O)O)c2ccc(O)cc2)CCC13` (stereo not given), `OC1CC(CN2CCC(c3ccccc3)CC2)CCc2ccccc21` (stereo not given) is lower in melting point: 145 to 152 °C for the first, 48 to 50 °C for the second.

First: O=C(NCc1ccc([N+](=O)[O-])cc1)N(c1ccccc1)c1ccccc1
Second: O=C(OCc1ccccc1)C(O)P(=O)(OCc1ccccc1)OCc1ccccc1 (stereo not given)
The melting point of the first is higher: 137 to 138 °C for the first, 67 to 68 °C for the second.

First: CN1CC2=C(n3cnc(C#Cc4ccccc4)c3C1)S(=O)C=C2 (stereo not given)
Second: COC(=O)c1cccc(-c2nc(COc3ccc(COc4nn(-c5ccccc5)cc4C=O)cc3)c(C)o2)c1
The melting point of the first is lower: 143 to 144 °C for the first, 161 to 162 °C for the second.

Compared with `COC(=O)C(C(C)=O)C(c1cccc([N+](=O)[O-])c1)C(C(C)=O)C(=O)OC` (stereo not given), `CC1=C(C(=O)OC(C)C)C(c2cccc([N+](=O)[O-])c2)C(S(=O)(=O)N(C)C)=C(C)N1` (stereo not given) is higher in melting point: 94 to 96 °C for the first, 136 to 138 °C for the second.

First: CC(OC(=O)OCC(=O)N(C)C)OC(=C1C(=O)N(C(N)=O)c2cc(Cl)c(F)cc21)c1cccs1 (stereo not given)
Second: Cc1c(S(=O)(=O)N(O)C(=N)Nc2ccc(Cl)c(Cl)c2)sc2ccc(Cl)cc12
The melting point of the first is lower: 194 to 196 °C for the first, 232 to 233 °C for the second.

Compared with `CC(C)(C)CC(C)(C)c1ccc(Oc2cc(N)c(O)cc2[N+](=O)[O-])cc1`, `CCOc1cc(-n2ccnc2)ccc1C#N` is lower in melting point: 187 to 189 °C for the first, 134 to 136 °C for the second.

First: O=C(O)c1c(Cl)nc(Cl)nc1Cl
Second: N#Cc1c(-c2oc3ccccc3c2Cl)[nH]c(Cl)c1Cl
The melting point of the first is lower: 150 °C for the first, 258 to 260 °C for the second.

Compared with `CC(C)C[C@H](NC(=O)OCc1ccccc1)C(=O)N[C@@H](C(C)C)[C@@H](O)c1c(-c2ccccc2)c1=O`, `CCCCCCCCOc1cc(-c2ccccc2)c(OCC(=O)O)c(-c2ccccc2)c1` is lower in melting point: 84 to 94 °C for the first, 82 to 84 °C for the second.

Compared with `CC(Cl)(Cl)C(NC(=O)c1ccc(Cl)cc1)Nc1c(Nc2cccnc2)c(=O)c1=O` (stereo not given), `Cc1cc(Cl)ccc1Br` is lower in melting point: 201 to 202 °C for the first, 91 to 95 °C for the second.

First: Cc1ccc(C23CCC(O)(CC2)CC3)cc1
Second: CC(C)=CCC(C(=O)O)C(=O)O
The melting point of the first is higher: 144 °C for the first, 96 to 97 °C for the second.

Source: a melting point compilation (Tetko et al.; mined from patent text by program, amines drawn as free bases though some values may be those of a salt)
